Laboratory results: ChEMBL document CHEMBL4316606, “Discovery of novel 2,3-dihydro-1H-inden-1-amine derivatives as selective monoamine oxidase B inhibitors” (Bioorg Med Chem Lett, 2019)

How the values were obtained:
[1] = target: T1, Amine oxidase [flavin-containing] B (Homo sapiens, UniProt P27338); test: Inhibition of recombinant human MAOB expressed in baculovirus infected BTI insect cells using p-tyramine as substrate preincubated for 30 mins followed by substrate addition and measured over 15 mins by Amplex red reagent/horseradish peroxidase coupled fluorescence assay
T1 sequence (P27338 whole entry): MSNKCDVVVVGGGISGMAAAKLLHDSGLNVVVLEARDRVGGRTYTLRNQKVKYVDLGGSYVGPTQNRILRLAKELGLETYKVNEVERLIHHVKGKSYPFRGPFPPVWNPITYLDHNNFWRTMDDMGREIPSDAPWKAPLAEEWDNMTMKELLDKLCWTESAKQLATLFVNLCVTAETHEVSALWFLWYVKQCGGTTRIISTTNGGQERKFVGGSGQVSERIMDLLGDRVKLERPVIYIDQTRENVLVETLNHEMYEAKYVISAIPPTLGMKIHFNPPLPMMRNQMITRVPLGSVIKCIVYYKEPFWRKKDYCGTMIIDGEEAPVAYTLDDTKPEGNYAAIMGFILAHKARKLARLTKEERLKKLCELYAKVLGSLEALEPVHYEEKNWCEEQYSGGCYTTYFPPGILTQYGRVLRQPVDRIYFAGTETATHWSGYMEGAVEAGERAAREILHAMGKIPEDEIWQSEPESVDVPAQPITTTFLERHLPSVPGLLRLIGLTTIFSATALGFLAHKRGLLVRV

[2] = species: Homo sapiens; test: Selectivity index, ratio of IC50 for recombinant human MAOA expressed in baculovirus infected BTI insect cells to IC50 for recombinant human MAOB expressed in baculovirus infected BTI insect cells
[3] = target: T2, Amine oxidase [flavin-containing] A (Homo sapiens, UniProt P21397); test: Inhibition of recombinant human MAOA expressed in baculovirus infected BTI insect cells using p-tyramine as substrate preincubated for 30 mins followed by substrate addition and measured over 15 mins by Amplex red reagent/horseradish peroxidase coupled fluorescence assay
T2 sequence (P21397 whole entry): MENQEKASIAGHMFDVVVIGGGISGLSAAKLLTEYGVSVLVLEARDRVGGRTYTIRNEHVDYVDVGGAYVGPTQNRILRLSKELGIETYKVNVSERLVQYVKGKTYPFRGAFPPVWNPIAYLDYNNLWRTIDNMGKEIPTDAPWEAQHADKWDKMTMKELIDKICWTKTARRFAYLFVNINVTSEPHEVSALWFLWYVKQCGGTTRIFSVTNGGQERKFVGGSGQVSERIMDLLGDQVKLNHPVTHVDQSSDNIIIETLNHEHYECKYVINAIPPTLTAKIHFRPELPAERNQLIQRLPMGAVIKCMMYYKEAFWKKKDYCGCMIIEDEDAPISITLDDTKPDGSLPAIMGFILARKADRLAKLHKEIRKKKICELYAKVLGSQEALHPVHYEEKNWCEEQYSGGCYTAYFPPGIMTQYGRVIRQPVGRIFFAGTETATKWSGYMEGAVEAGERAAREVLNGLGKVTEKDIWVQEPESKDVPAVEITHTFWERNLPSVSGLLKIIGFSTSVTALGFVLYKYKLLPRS

| IC50 [1] | IC50 [3] | SMILES | Ratio IC50 [2] |
| --- | --- | --- | --- |
| > 20000 nM | – | C#CCNC1CCc2c(OCCc3cc(NC(=O)c4ccccc4)ccc3Cl)cccc21 (stereo not drawn) | – |
| > 20000 nM | – | C#CCNC1CCc2c(OCCc3cc(NC(=O)C(C)(C)C)ccc3F)cccc21 (stereo not drawn) | – |
| 360 nM | – | C#CCNC1CCc2c(OCCc3cccc(NC(=O)c4ccc(Cl)cc4)c3)cccc21 (stereo not drawn) | – |
| 110 nM | 94300 nM | C#CCNC1CCc2c(NCc3cccc(Br)c3)cccc21 (stereo not drawn) | 857 |
| > 20000 nM | – | C#CCNC1CCc2c(SCc3ccc(C(C)(C)C)cc3)cccc21 (stereo not drawn) | – |
| 250 nM | 43100 nM | C#CCNC1CCc2c(NCc3ccc(C)cc3)cccc21 (stereo not drawn) | 172 |
| 480 nM | 436000 nM | C#CCNC1CCc2c(OCCc3cc(NC(=O)COC(C)=O)ccc3Cl)cccc21 (stereo not drawn) | 909 |
| 2700 nM | – | C#CCNC1CCc2c(OCc3cccc(F)c3)cccc21 (stereo not drawn) | – |
| > 20000 nM | – | C#CCNC1CCc2c(OCCc3cc(NC(=O)c4ccc(Cl)cc4)ccc3Cl)cccc21 (stereo not drawn) | – |
| 1860 nM | – | C#CCNC1CCc2c(NCc3cccc(F)c3)cccc21 (stereo not drawn) | – |
| 270 nM | 252000 nM | C#CCNC1CCc2c(OCCc3cc(NC(=O)CO)ccc3Cl)cccc21 (stereo not drawn) | 934 |
| 1900 nM | – | C#CCNC1CCc2c(OCCc3cccc4ccccc34)cccc21 (stereo not drawn) | – |
| 5100 nM | – | C#CCNC1CCc2c(OCCc3cc(NC(=O)c4ccc(F)cc4)ccc3Cl)cccc21 (stereo not drawn) | – |
| 180 nM | 230 nM | C#CCNC1CCc2c(SCc3ccc(Cl)cc3)cccc21 (stereo not drawn) | 1.2 |
| > 20000 nM | – | C#CCNC1CCc2c(OCCc3cc(NC(=O)c4cccc(F)c4)ccc3Cl)cccc21 (stereo not drawn) | – |
| 980 nM | – | C#CCNC1CCc2c(NCc3ccc(F)cc3)cccc21 (stereo not drawn) | – |
| > 20000 nM | – | C#CCNC1CCc2c(NCc3ccccc3)cccc21 (stereo not drawn) | – |
| 590 nM | 85200 nM | C#CCNC1CCc2c(OCCc3cc(NC(C)=O)ccc3Cl)cccc21 (stereo not drawn) | 144 |
| 240 nM | < 100 nM | C#CCNC1CCc2c(SCc3ccc(F)cc3)cccc21 (stereo not drawn) | – |
| 710 nM | – | C#CCNC1CCc2c(NCc3cccc(C)c3)cccc21 (stereo not drawn) | – |
